The target of assay [1] is Cathepsin S (Homo sapiens, UniProt P25774). The assay can be described thus: Cathepsin S inhibition assay (fluorogenic peptide substrate). In kind it is biochemical. Particulars: Table II, compounds of Formula I; read-out: Ki Cat. S. The essentials:
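Ki values come from nonlinear fitting of inhibited hydrolysis rates, taking free and total inhibitor concentrations as equal. Rates measured as rising fluorescence at 380/450 nm after reaction start with 50 μM final acetyl-HPVK-aminocarbamoylcoumarin.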

Assay [2] concerns the target T1, Cathepsin K (Homo sapiens, UniProt P43235).
T1 sequence (P43235 115-329): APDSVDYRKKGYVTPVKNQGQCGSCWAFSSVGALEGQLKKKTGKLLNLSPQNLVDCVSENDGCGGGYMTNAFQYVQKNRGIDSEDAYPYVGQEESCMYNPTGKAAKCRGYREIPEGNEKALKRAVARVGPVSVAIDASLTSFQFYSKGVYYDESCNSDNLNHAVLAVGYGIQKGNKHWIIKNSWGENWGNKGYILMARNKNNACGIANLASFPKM
In words: Cathepsin K inhibition assay (fluorogenic peptide substrate); selectivity ratio vs cathepsin S. The format is biochemical. The note with it: ratio of cathepsin K inhibition constant to cathepsin S inhibition constant; Table II. In short, it runs like this:
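Inhibition constants for competitive inhibitors come from apparent values fitted to enzyme progress curves. Substrate, acetyl-Lys-His-Pro-Lys-aminocarbamoylcoumarin (40 μM final), starts the reaction; fluorescence rise read at 380 nm excitation, 450 nm emission. Selectivity ratio: other cathepsin constant over cathepsin S constant.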

19 compounds from patent US7109243B2 (IRM LLC, priority 2003, dated 2006) can be followed below.

Cathepsin S, sequence (P25774 115-331, species assumed): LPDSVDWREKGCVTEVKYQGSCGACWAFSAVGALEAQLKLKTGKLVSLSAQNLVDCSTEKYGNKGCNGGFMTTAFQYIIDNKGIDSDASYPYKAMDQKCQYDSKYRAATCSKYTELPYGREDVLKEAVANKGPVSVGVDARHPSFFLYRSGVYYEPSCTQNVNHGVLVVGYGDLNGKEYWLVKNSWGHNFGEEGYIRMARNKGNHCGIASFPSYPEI

Turning to `O=C(NCCNc1ccc(F)cc1)[C@H](CC1CCCCC1)NC(=O)C1(c2ccccc2)CC1` [Compound 319, 1-Phenyl-cyclopropanecarboxylic acid (S)-{2-cyclohexyl-1-[2-(4-fluoro-phenylamino)-ethylcarbamoyl]-ethyl}-amide], the Ki in assay [1] is below 100 nM. Further, the “Selectivity for Cat. S over Cat. K” value in assay [2] is reported as “++ (++, >100)”.
For the compound `COc1ccccc1-c1ccc(C(=O)N[C@@H](CC2CCCCC2)C(=O)NCCNc2ccc(OC(F)(F)F)cc2)o1` [Compound 210, (S)-5-(2-Methoxy-phenyl)-furan-2-carboxylic acid {2-cyclohexyl-1-[2-(4-trifluoromethoxy-phenylamino)-ethylcarbamoyl]-ethyl}-amide], the Ki in assay [1] is below 100 nM. Moreover, the “Selectivity for Cat. S over Cat. K” value in assay [2] is on record as “++ (++, >100)”.
For the compound `COc1ccc(NCCNC(=O)[C@H](CC2CCCCC2)NC(=O)c2ccc(-c3ccccc3OC)cc2)cc1` [Compound 174, (S)-2′-Methoxy-biphenyl-4-carboxylic acid {2-cyclohexyl-1-[2-(4-methoxy-phenylamino)-ethylcarbamoyl]-ethyl}-amide], the Ki in assay [1] was below 100 nM. Moreover, the “Selectivity for Cat. S over Cat. K” value in assay [2] is listed as “+ (+, >10)”.
As for `COc1ccc(NCCNC(=O)[C@H](Cc2ccc(OCc3ccccc3)cc2)NC(=O)c2cccc(C)c2)cc1` [Compound 247, (S)-N-{2-(4-Benzyloxy-phenyl)-1-[2-(4-methoxy-phenylamino)-ethylcarbamoyl]-ethyl}-3-methyl-benzamide], in assay [1], the Ki was below 100 nM. For the same compound, the “Selectivity for Cat. S over Cat. K” value in assay [2] was “+++ (+++, >1000)”.
With `COc1ccc(NCCNC(=O)[C@H](CCC2CCCCC2)NC(=O)c2ccc(-c3cccc(C(F)(F)F)c3)o2)cc1` [Compound 136, (S)-5-(3-Trifluoromethyl-phenyl)-furan-2-carboxylic acid {3-cyclohexyl-1-[2-(4-methoxy-phenylamino)-ethylcarbamoyl]-propyl}-amide], the Ki in assay [1] is below 1000 nM. Besides, the “Selectivity for Cat. S over Cat. K” value in assay [2] is on record as “++ (++, >100)”.
With `O=C(N[C@@H](CC1CCCCC1)C(=O)NCCNc1ccc(OC(F)(F)F)cc1)c1ccsc1` [Compound 37, Thiophene-3-carboxylic acid (S)-{2-cyclohexyl-1-[2-(4-trifluoromethoxy-phenylamino)-ethylcarbamoyl]-ethyl}-amide], in assay [1], the Ki was below 100 nM. For the same compound, the “Selectivity for Cat. S over Cat. K” value in assay [2] is “++ (++, >100)”.
In the case of `COc1ccc(NCCNC(=O)C(NC(=O)c2cccc(C)c2)c2ccc(C)cc2C)cc1` (centres unmarked) [Compound 224, N-{(2,4-Dimethyl-phenyl)-[2-(4-methoxy-phenylamino)-ethylcarbamoyl]-methyl}-3-methyl-benzamide], the Ki in assay [1] was below 1000 nM. The “Selectivity for Cat. S over Cat. K” value in assay [2] is “++ (++, >100)”.
Take `O=C(Cc1ccccc1)N[C@@H](CC1CCCCC1)C(=O)NCCNc1ccc(F)cc1` [Compound 303, 3-Cyclohexyl-N-[2-(4-fluoro-phenylamino)-ethyl]-2-(S)-phenylacetylamino-propionamide]: the Ki in assay [1] is below 100 nM. The “Selectivity for Cat. S over Cat. K” value in assay [2] is recorded as “++ (++, >100)”.
`COc1ccc(NCCNC(=O)C(NC(=O)c2cccc(C)c2)c2cccc3ccccc23)cc1` (centres unmarked) [Compound 218, N-{[2-(4-Methoxy-phenylamino)-ethylcarbamoyl]-naphthalen-1-yl-methyl}-3-methyl-benzamide]: the Ki in assay [1] was below 1000 nM. In assay [2], the “Selectivity for Cat. S over Cat. K” value is reported as “+++ (+++, >1000)”.
Consider `COc1ccc(NCCNC(=O)C(NC(=O)c2cccc(C)c2)c2ccc(OCc3ccccc3)cc2)cc1` (centres unmarked) [Compound 217, N-{(4-Benzyloxy-phenyl)-[2-(4-methoxy-phenylamino)-ethylcarbamoyl]-methyl}-3-methyl-benzamide], for which the Ki in assay [1] is below 1000 nM. Also, the “Selectivity for Cat. S over Cat. K” value in assay [2] was “+++ (+++, >1000)”.
Consider `CCCc1ccc(C(=O)N[C@@H](CC2CCCCC2)C(=O)NCCNc2ccc(OC)cc2)cc1` [Compound 151, (S)-N-{2-Cyclohexyl-1-[2-(4-methoxy-phenylamino)-ethylcarbamoyl]-ethyl}-4-propyl-benzamide], for which the Ki in assay [1] was below 100 nM. The “Selectivity for Cat. S over Cat. K” value in assay [2] is given as “+ (+, >10)”.
`Cc1ccccc1CC(=O)N[C@@H](CC1CCCCC1)C(=O)NCCNc1ccc(F)cc1` [Compound 304, 3-Cyclohexyl-N-[2-(4-fluoro-phenylamino)-ethyl]-2-(S)-(2-o-tolyl-acetylamino)-propionamide]: the inhibition constant (Ki) in assay [1] is below 100 nM. In addition, in assay [2], the “Selectivity for Cat. S over Cat. K” value is “+++ (+++, >1000)”.
Consider `COc1ccc(NCCNC(=O)[C@H](Cc2ccc(Oc3cccc(Cl)c3)cc2)NC(=O)c2cccc(C)c2)cc1` [Compound 329, (S)-N-{2-[4-(3-Chloro-phenoxy)-phenyl]-1-[2-(4-methoxy-phenylamino)-ethylcarbamoyl]-ethyl}-3-methyl-benzamide], for which the inhibitory constant (Ki) in assay [1] is below 1000 nM. Further, the “Selectivity for Cat. S over Cat. K” value in assay [2] is “++ (++, >100)”.
In the case of `COc1ccc(NCCNC(=O)[C@H](CCC2CCCCC2)NC(=O)c2cc3cc(Cl)ccc3o2)cc1` [Compound 134, (S)-5-Chloro-benzofuran-2-carboxylic acid {3-cyclohexyl-1-[2-(4-methoxy-phenylamino)-ethylcarbamoyl]-propyl}-amide], the Ki in assay [1] was below 1000 nM. For the same compound, the “Selectivity for Cat. S over Cat. K” value in assay [2] is on record as “++ (++, >100)”.
On to `COc1ccc(NCCNC(=O)[C@H](Cc2ccccc2)NC(=O)c2cc(C)c(OCc3ccccc3)c(C)c2)cc1` [Compound 20, (S)-4-Benzyloxy-N-{1-[2-(4-methoxy-phenylamino)-ethylcarbamoyl]-2-phenyl-ethyl}-3,5-dimethyl-benzamide], for which the Ki in assay [1] is below 1000 nM. In addition, in assay [2], the “Selectivity for Cat. S over Cat. K” value is reported as “++ (++, >100)”.
Take `COc1ccc(NCCNC(=O)[C@H](CC2CCCCC2)NC(=O)c2ccc3ncsc3c2)cc1` [Compound 186, (S)-Benzothiazole-6-carboxylic acid {2-cyclohexyl-1-[2-(4-methoxy-phenylamino)-ethylcarbamoyl]-ethyl}-amide]: the Ki in assay [1] was below 100 nM. The “Selectivity for Cat. S over Cat. K” value in assay [2] is reported as “++ (++, >100)”.
For the compound `COc1ccc(NCCNC(=O)[C@H](CC2CCCCC2)NC(=O)c2ccc(-c3cc(C(F)(F)F)ccc3Cl)o2)cc1` [Compound 193, (S)-5-(2-Chloro-5-trifluoromethyl-phenyl)-furan-2-carboxylic acid {2-cyclohexyl-1-[2-(4-methoxy-phenylamino)-ethylcarbamoyl]-ethyl}-amide], the Ki in assay [1] is below 100 nM. In assay [2], the “Selectivity for Cat. S over Cat. K” value is “++ (++, >100)”.
As to `O=C(Cn1cnnn1)N[C@@H](CC1CCCCC1)C(=O)NCCNc1ccc(OC(F)(F)F)cc1` [Compound 46, 3-Cyclohexyl-2-(S)-(2-tetrazol-1-yl-acetylamino)-N-[2-(4-trifluoromethoxy-phenylamino)-ethyl]-propionamide], the Ki in assay [1] was below 1000 nM. Further, the “Selectivity for Cat. S over Cat. K” value in assay [2] is on record as “++ (++, >100)”.
As for `COc1ccc(NCCNC(=O)[C@H](CC2CCCCC2)NC(=O)CNc2ccccc2)cc1` [Compound 159, (S)-3-Cyclohexyl-N-[2-(4-methoxy-phenylamino)-ethyl]-2-(2-phenylamino-acetylamino)-propionamide], in assay [1], the inhibition constant (Ki) is below 100 nM. The “Selectivity for Cat. S over Cat. K” value in assay [2] is “+++ (+++, >1000)”.
